{"source": "patent US20230082870A1", "about": "“COMPOSITION FOR CALCIUM SUPPLEMENTATION” (ABIOGEN PHARMA S.P.A., priority 2017, published 2023)", "origin": "cited, not measured here", "conditions": "state of the art", "data": [{"smiles": "O=C([O-])CC(O)(CC(=O)[O-])C(=O)[O-].O=C([O-])CC(O)(CC(=O)[O-])C(=O)[O-].[Ca+2].[Ca+2].[Ca+2]", "note": "[calcium citrate]", "values": [{"measurement": "Bioavailability, higher than that of calcium carbonate", "result": "20-30%"}]}]}
